ChEMBL document CHEMBL3132800, “Identification of novel inhibitors of p53MDM2 interaction facilitated by pharmacophore-based virtual screening combining molecular docking strategy” (Medchemcomm, 2013)

Assays:
HCT-116 [1] = assay: Cytotoxicity against human HCT116 cells after 72 hrs by SRB assay relative to Nutlin-3; format: functional
[2] = target: Tumour suppressor p53/oncoprotein Mdm2 (Homo sapiens, UniProt Q00987); assay: Inhibition of p53-MDM2 (1 to 118 residues) interaction (unknown origin) expressed in Escherichia coli BL-21 (DE3) assessed as inhibition of MDM2 binding by fluorescence polarization competitive binding assay
SW-620 = assay: Cytotoxicity against human SW620 cells after 72 hrs by SRB assay; format: functional, cell-based; conditions: SW-620, 72 h
SJSA-1 = assay: Cytotoxicity against human SJSA1 cells after 72 hrs by SRB assay; format: functional, cell-based; conditions: SJSA-1, 72 h
HCT-116 [3] = assay: Cytotoxicity against human HCT116 cells after 72 hrs by SRB assay; format: functional, cell-based; conditions: HCT-116, 72 h
PC-3 = assay: Cytotoxicity against human PC3 cells after 72 hrs by SRB assay; format: functional, cell-based; conditions: PC-3, 72 h
A549 = assay: Cytotoxicity against human A549 cells after 72 hrs by SRB assay; format: functional, cell-based; conditions: A549, 72 h

Sequence of Tumour suppressor p53/oncoprotein Mdm2 (P04637 whole entry, the tested form may be a part): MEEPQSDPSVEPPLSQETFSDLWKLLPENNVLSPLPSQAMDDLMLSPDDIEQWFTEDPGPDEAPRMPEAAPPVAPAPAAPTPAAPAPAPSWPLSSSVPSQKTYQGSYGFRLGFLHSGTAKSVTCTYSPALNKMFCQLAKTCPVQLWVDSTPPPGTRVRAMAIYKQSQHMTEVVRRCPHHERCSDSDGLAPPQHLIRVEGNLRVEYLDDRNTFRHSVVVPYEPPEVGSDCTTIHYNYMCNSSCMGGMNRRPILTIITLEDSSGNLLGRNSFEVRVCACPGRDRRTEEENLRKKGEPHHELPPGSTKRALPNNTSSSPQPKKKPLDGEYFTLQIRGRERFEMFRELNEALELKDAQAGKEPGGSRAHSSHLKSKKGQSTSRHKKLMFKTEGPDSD
Sequence of Tumour suppressor p53/oncoprotein Mdm2 (Q00987 whole entry, the tested form may be a part): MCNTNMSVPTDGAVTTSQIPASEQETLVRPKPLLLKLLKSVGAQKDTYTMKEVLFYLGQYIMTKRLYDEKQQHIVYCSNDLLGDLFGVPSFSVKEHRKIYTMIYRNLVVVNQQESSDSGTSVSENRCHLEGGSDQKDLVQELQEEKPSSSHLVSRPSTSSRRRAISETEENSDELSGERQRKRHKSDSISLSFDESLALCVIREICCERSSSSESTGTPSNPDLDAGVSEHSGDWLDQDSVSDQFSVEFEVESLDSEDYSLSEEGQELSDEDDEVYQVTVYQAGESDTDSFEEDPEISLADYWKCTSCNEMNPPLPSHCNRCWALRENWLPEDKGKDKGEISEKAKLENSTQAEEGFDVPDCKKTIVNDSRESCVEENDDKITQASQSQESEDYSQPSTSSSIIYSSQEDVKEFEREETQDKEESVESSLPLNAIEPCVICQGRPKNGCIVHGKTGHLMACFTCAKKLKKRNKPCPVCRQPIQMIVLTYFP

Nc1sc(-c2ccc(Cl)cc2)c(-c2ccc(Cl)cc2)c1C(=O)N1CCCC1
Ratio IC50 (HCT-116 [1]): 1.3 | IC50 [2]: 2.84 µM | IC50 (SW-620): 3.87 µM | IC50 (SJSA-1): 17.6 µM | IC50 (HCT-116 [3]): 3.63 µM

COc1ccc(C2=NC(c3ccc(Cl)cc3)C(c3ccc(Cl)cc3)N2C(=O)N2CCNC(=O)C2)c(OC(C)C)c1 (racemic)
IC50 (PC-3): 6.37 µM | IC50 (A549): 0.41 µM | IC50 (SW-620): 0.38 µM | IC50 (SJSA-1): 1.81 µM | IC50 (HCT-116 [3]): 4.63 µM

COC(=O)c1c(N)sc(-c2ccc(Cl)cc2)c1-c1ccc(Cl)cc1
Ratio IC50 (HCT-116 [1]): 1.3 | IC50 [2]: 4.23 µM | IC50 (SW-620): 3.23 µM | IC50 (SJSA-1): 40.9 µM | IC50 (HCT-116 [3]): 1.66 µM

Nc1sc(-c2ccc(Cl)cc2)c(-c2ccc(Cl)cc2)c1C(=O)Nc1ccccc1
IC50 [2]: > 50 µM | IC50 (SW-620): 39.7 µM | IC50 (SJSA-1): > 500 µM | IC50 (HCT-116 [3]): 14.5 µM

Nc1sc(-c2ccc(Cl)cc2)c(-c2ccc(Cl)cc2)c1C(=O)NC1CC1
Ratio IC50 (HCT-116 [1]): 1.3 | IC50 [2]: 2.08 µM | IC50 (SW-620): 1.74 µM | IC50 (SJSA-1): 31.9 µM | IC50 (HCT-116 [3]): 0.24 µM

Nc1sc(-c2ccc(Cl)cc2)c(-c2ccc(Cl)cc2)c1C(=O)NC1CCCCC1
Ratio IC50 (HCT-116 [1]): 1.3 | IC50 [2]: 0.9 µM | IC50 (SW-620): 3.07 µM | IC50 (SJSA-1): 102 µM | IC50 (HCT-116 [3]): 0.59 µM
